Where two headings read alike, the source gives them in different places.
Columns and labels:
[1] = test system: SU60 patient-derived colorectal cancer xenograft; assay: in vivo efficacy, SU60 patient-derived colorectal cancer xenograft model; settings: SU60 CRC PDX; for % TGI: Day 19; for Median Tumor Volumes Diff.: Day 19 minus Day 1
Description: The therapeutic in vivo efficacy of Compound 1 was evaluated in SU60 colorectal cancer, KYSE-150 esophageal cancer, COH70 triple-negative breast cancer, GXA-3036 gastric adenocarcinoma and OCI-LY19 Diffuse Large B-Cell Non-Hodgkin's Lymphoma xenograft models. In all studies, efficacy was determined based on percent tumor growth inhibition (TGI), differences in mean tumor growth, and statistical assessment of differences in net tumor volume distributions on the day of TGI analysis between control and treated animals. Tolerability was assessed based on differences in mean body weights between control and treated animals over the course of the study.
The in vivo therapeutic efficacy and tolerability of Compound 1, administered orally as the free acid form in a vehicle comprised of 50% polyethylene glycol 400 (PEG 400) and 50% PBS (pH 9), was evaluated in the SU60 CRC PDX model established in female non-obese diabetic/severe combined immunodeficiency (NOD/SCID) gamma (NSG) mice. Each mouse was inoculated subcutaneously in the abdomen with 2×10^6 SU60 tumor cells (0.1 ml) suspended in Matrigel. When the average tumor size reached ˜270 mm3, test animals were randomized into 6 groups consisting of 8 mice per group and treatments were initiated. Control mice received 50% PEG 400 and 50% PBS (pH 9) vehicle PO QD×7. Treated mice received Compound 1 in vehicle PO at 20 or 10 mg/kg QD×7, at 20 mg/kg QOD, at 23 mg/kg 3 on/4 off, or at 14 mg/kg at 5 on/2 off. TGI was determined on Day 19 as (1−Diff treated/Diff control)×100. The difference in mean net tumor volumes on the day of TGI analysis for treated versus control animals was evaluated statistically using one-way analysis of variance (ANOVA) followed by Dunnett's multiple comparisons test. Adjusted p-values are shown where a calculated probability (p)≤0.05 was considered statistically significant. Individual tumors were measured twice weekly in two dimensions using a caliper, and the tumor volumes (TV) in mm3 were calculated using the formula: TV=0.5 (l×w×h), where l, w, and h are the tumor length, width, and height in mm, respectively; Mean tumor volumes±standard error of the mean (SEM) were calculated and plotted versus days of dosing (FIG. 10 left panel). Body weights were measured twice weekly. Body weights±SEM were calculated and plotted versus days of dosing (FIG. 10 right panel).

[2] = test system: PA0143F patient-derived pancreatic cancer organoid model; assay: organoid colony formation assay, PA0143F; type: cell-based, human
Description: (§1) The IC50 values for Compound 1 inhibition of colony formation and viability were determined for the patient-derived colon cancer organoid models: SU60, T002C, SU62, SU34, SU103, T03SC, and SU106, patient-derived pancreatic cancer organoid models PA016SF, PA0143F, T016P, and T028P, and a patient-derived breast cancer organoid model FS5S3.
(§2) Colony formation and viability assays were performed in multiwell plates seeded with organoids using an in vitro culture system composed of a Matrigel layer, media containing a defined set of growth factors, and co-culture with Wnt3 A-secreting mouse embryonic fibroblasts. Assays were initiated by adding either DMSO as a negative control, or an inhibitor panobinostatat 100×IC50 concentration as a positive control, or serially diluted Compound 1. The cultures were incubated for 168 or 144 hours after which the number of viable organoids in each test well was assessed respectively using one of two detection methods: CTG or staining with calcein-AM followed by imaging and colony counting. Colony count or viability of cells treated with compound 1 was expressed as a percent of the negative control. Aggregated Percent of Control values were plotted against the corresponding Compound 1 concentration and the absolute IC50 value was determined from a non-linear regression curve as the concentration where inhibition was 50% of the control.

[3] = test system: erythroid hematopoietic progenitor cells derived from human bone marrow; assay: erythroid colony formation of hematopoietic progenitor cells; type: cell-based
Description: Compound 1 was evaluated for its effects on proliferation of erythroid and myeloid hematopoietic progenitor cells derived from human bone marrow at […] Technologies Inc. (Vancouver, BC, Canada).
Cells were thawed rapidly at 37° C. into DNAse I and then diluted in 10 mL of Iscove's Modified Dulbecco's medium containing 2% fetal bovine serum (IMDM+2% FBS) and washed by centrifugation (1200 rpm for 10 minutes at room temperature). The supernatant was discarded and the cell pellet resuspended in a known volume of IMDM+2% FBS. A nucleated cell count (3% glacial acetic acid) and viability assessment (trypan blue exclusive test) were performed.
Compound 1 and positive control (panobinostat) were diluted in DMSO and tested at concentrations ranging from 0.002 μM to 5 μM in final media. These dilutions provided the appropriate final test concentrations required for the test and control articles ([…], and 0.002 μM).
Test and control articles were incubated with human bone marrow hematopoietic progenitor cells. After 14 days, cell colonies were assessed.
To calculate the concentration of 50% and 90% inhibition of colony growth (IC50 and IC90) for each test article, a dose response curve was generated plotting the log of the test article concentration versus the percentage of control colony growth using GraphPad Prism. […] The IC50 and IC90 values for both test and control articles were derived from an interpolation of the curve fit. In cases where the IC50/90 value reported by GraphPad Prism is a value beyond the range of concentrations that were actually tested, if this value is more than 4 times the highest concentration tested, or where GraphPad Prism cannot calculate an IC50/90 value, notations of >5 μM (for test article compound 1) are used.

[4] = test system: T035C patient-derived colon cancer organoid model; assay: organoid colony formation assay, T035C; type: cell-based, human
Description: as §1, §2

[5] = test system: FS53 patient-derived breast cancer organoid model; assay: organoid colony formation assay, FS53; type: cell-based, human
Description: as §1, §2

[6] = 14 mg/kg (70 weekly) PO 5 on/2 off
[7] = 23 mg/kg (69 weekly) PO 3 on/4 off

Compound: CC(C)c1ccc(N(C)c2ccc3c(c2)OCC[C@H]3CNc2cnccc2C(=O)O)cc1 [Compound 1, 3-({[(4R)-7-{methyl[4-(propan-2-yl)phenyl]amino}-3,4-dihydro-2H-1-benzopyran-4-yl]methyl}amino)pyridine-4-carboxylic acid]
- tolerability (mean body weight changes) ([1]; female NSG mice, all regimens, over the course of the study): well-tolerated
- Median Tumor Volumes Day 19 ([1]; female NSG mice, free acid 10 mg/kg (70 weekly) PO QD x7): 1151 mm^3
- Median Tumor Volumes Day 19 ([1]; female NSG mice, free acid 14 mg/kg (70 weekly) PO 5 on/2 off): 1300 mm^3
- Median Tumor Volumes Day 19 ([1]; female NSG mice, free acid 20 mg/kg (70 weekly) PO QOD): 1527 mm^3
- Median Tumor Volumes Day 19 ([1]; female NSG mice, free acid 20 mg/kg (140 weekly) PO QD x7): 767 mm^3
- Median Tumor Volumes Day 19 ([1]; female NSG mice, free acid 23 mg/kg (69 weekly) PO 3 on/4 off): 1121 mm^3
- % TGI ([1]; 10 mg/kg (70 weekly) PO QD x7): 48%
- Median Tumor Volumes Diff. ([1]; 10 mg/kg (70 weekly) PO QD x7): 901 mm^3
- % TGI [1, 6]: 42%
- Median Tumor Volumes Diff. [1, 6]: 1019 mm^3
- % TGI ([1]; 20 mg/kg (70 weekly) PO QOD): 29%
- Median Tumor Volumes Diff. ([1]; 20 mg/kg (70 weekly) PO QOD): 1242 mm^3
- % TGI ([1]; 20 mg/kg (140 weekly) PO QD x7): 71%
- Median Tumor Volumes Diff. ([1]; 20 mg/kg (140 weekly) PO QD x7): 506 mm^3
- % TGI [1, 7]: 52%
- Median Tumor Volumes Diff. [1, 7]: 833 mm^3
- IC50 ([2]; Homo sapiens, PA0143F pancreatic carcinoma model): > 10 µM
- IC50 ([2]; PA0143F human pancreatic carcinoma organoid, 144 hrs, Colony Counts): > 10 µM
- IC50 ([3]; 336 h, human bone marrow progenitor cells, 14 days, read-out: IC50, inhibition of erythroid colony formation): > 5 µM
- IC90 ([3]; 336 h, human bone marrow progenitor cells, colony growth after 14 days): > 5 µg/mL
- IC50 ([3]; 336 h, human bone marrow progenitor cells, colony growth after 14 days, read-out: Erythroid IC50): > 5 µg/mL
- concentrations at which colony morphology (size and density) was slightly compromised ([3]; erythroid derived colonies): ≥ 1.67 μM
- effect on colony formation compared to 0.1% DMSO ([3]; progenitor cells from normal human bone marrow, p>0.01): no significant effect
- IC50 ([4]; Homo sapiens, T035C colorectal carcinoma model): > 10 µM
- IC50 ([4]; T035C human colorectal carcinoma organoid, 144 hrs, Colony Counts): > 10 µM
- IC50 ([5]; FS53 human breast carcinoma model): 13.6 µM
- IC50 ([5]; FS53 human breast carcinoma organoid, 144 hrs, Colony Counts): 13.6 µM
